According to patent publication US6399827B1, “Quaternary ammonium phosphate compound and method of preparing same” (SK Chemicals, priority 1997, dated 2002):

What was measured:
Assay type in all cases: cell-based
Bacteria = assay: Biocidal effect test (MIC), bacteria; conditions: serial dilution, 10^4 cfu/ml, 48 hours at 30° C., nutrient broth, turbidity read visually, range over 8 bacterial strains; for MIC: read-out: Minimal Inhibition Concentration (ppm) Bacteria
Experimental: (§1) This test was carried out for the purpose of measuring a biocidal effect of the compounds obtained from examples 1, 3 and 4. A test material was diluted using a serial dilution method in a 96-multiwelled plate. 10^4 cfu/ml of microbes were inoculated in the diluted solution. After the microbes were cultivated for 48 hours at 30° C., MIC (Minimal Inhibition Concentration of microorganisms) was visually observed to decide whether or not microbial growth occurred from the turbidity. The growth medium was nutrient broth, DIFCO, and the strains used were as follows.
Enterobacter aerogenes ATCC 13048, Escherichia coli ATCC 11229, Micrococcus luteus ATCC 9431, Pseudomonas aeruginosa ATCC 15442, Shigella sonnei ATCC 9290, Staphylococcus epidermis ATCC 155, Staphylococcus aureus ATCC 6538 and Bacillus subtilis ATCC 6984.

Yeasts = assay: Biocidal effect test (MIC), yeasts; conditions: serial dilution, 10^4 cfu/ml, 48 hours at 30° C., nutrient broth, turbidity read visually, range over 4 yeast strains; for MIC: Saccharomyces cerevisiae, read-out: Minimal Inhibition Concentration (ppm) yeasts
Experimental: as §1
Candida albicans ATCC 10231, Rhodotorula rubra ATCC 9449, Cryptococcus neoformans ATCC 34144 and Saccharomyces cerevisiae ATCC 9763.

Fungi = assay: Biocidal effect test (MIC), fungi; conditions: serial dilution, 10^4 cfu/ml, 48 hours at 30° C., nutrient broth, turbidity read visually, range over 4 fungal strains; for MIC: read-out: Minimal Inhibition Concentration (ppm) fungi
Experimental: as §1
Penicillium citrinum ATCC 98404, Trichoderma viridae ATCC 1287, Rhizopus oryzae ATCC 10404 and Aspergillus niger ATCC 9642.

Compound	MIC (Bacteria) [µg/mL]	MIC (Yeasts) [µg/mL]	MIC (Fungi) [µg/mL]	Minimal Inhibition Concentration (ppm) Bacteria (Bacteria)	Minimal Inhibition Concentration (ppm) yeasts (Yeasts)	Minimal Inhibition Concentration (ppm) fungi (Fungi)
CCCCCCCCCCCCCC[N+]1(Cc2ccccc2)CCOCC1.Cl.N.[Cl-] [B, 4-benzyl-4-tetradecyl morpholinium ammonium chloride]	6.3 to 12.5	6.3 to 25	25 to 100	–	–	–
CC(C)(C)CC(C)(C)c1ccc(OCCOCC[N+](C)(C)Cc2ccccc2)cc1.[Cl-] [A, N-dimethyl-N-[p-(α,α,γ,γ)-tetramethylbutylphenoxy]ethoxy ethyl-N-benzyl chloride]	–	–	–	12.5˜25 ppm	12.5˜25 ppm	25˜100 ppm
CCCCCCCCCCCCCC[N+]1(Cc2ccccc2)CCOCC1.N.O=P([O-])(O)O [example 4, 4-benzyl-4-tetradecyl morpholinium ammonium phosphate]	6.3 to 12.5	12.5 to 25	25 to 100	–	–	–
CC(C)(C)CC(C)(C)c1ccc(OCCOCC[N+](C)(C)Cc2ccccc2)cc1.O=P([O-])(O)O [example 1, N-dimethyl-N-[p-(α,α,γ,γ)-tetramethylbutylphenoxy]ethoxy ethyl-N-benzyl ammonium phosphate]	–	–	–	6.3˜12.5 ppm	6.3˜12.5 ppm	25˜100 ppm
